“And” between values parts separate entries of the source, which are not always exact repeats. Equal entries are not always repeated.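 Cells were grown in 96-well plates and exposed to each compound for 48 hours at five concentrations; endpoints were interpolated linearly between bracketing concentrations, or set to the highest concentration if not reached. GI50: concentration for 50% inhibition of growth. TGI marks complete inhibition of growth.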

The values below come from PubChem BioAssay (NCI).

This assay concerns P388 leukemia. The assay is described as follows: NCI tumour cell line growth inhibition, 48 h.

For the compound `N#Cc1cn(C2OC(CO)C(O)C2O)c2ncnc(N)c12` (stereo not drawn), the GI50 is 0.00528 µM and 0.045 µM; the TGI was 0.137 µM and 0.0463 µM.

`COc1ccc(C(=O)/C(Br)=C/C(=O)O)cc1` displayed a TGI of 53.7 µM.
